Values joined by “and” are separate entries in the source; they are usually repeats but may differ in a detail not shown here. Equal entries are not always repeated.
What was measured:
[1] = system: reverse yeast three-hybrid strain; test: 5-FOA effect on growth of reverse yeast three-hybrid strain; format: cell-based, Saccharomyces cerevisiae; conditions: 5-FOA concentrations beyond 0.3%
Description: First, we recombined the URA3 gene at the ura3-52 locus of our chemical complementation yeast strain, FY251, and selected for Ura^+ phenotype on medium lacking uracil to create VC2169. Next, the vectors carrying the DBD-DHFR and GR-B42 constructs were introduced into VC2169 and selected on plates lacking uracil, histidine, and tryptophan to create VC2291. Finally, we introduced the LexA(4op) and the Spo13 promoter upstream of the URA3 gene and selected for Ura^− phenotype on medium containing 5-FOA. This selection provided numerous reverse three-hybrid colonies. Three colonies were used to optimize the reverse yeast three-hybrid system for the highest fold increase in activation in the presence of 10 μM Mtx-Dex by measuring the difference between cell survival and cell death. Mtx-Dex was used, instead of Mtx-Cel-Dex, for the optimization of the system as the cellulose linker is not necessary for the system's functioning, and the synthesis of Mtx-Dex is simpler than that of Mtx-Cel-Dex. The system was optimized by varying the level of galactose, which affects the concentration of DBD-DHFR and AD-GR in the system, and 5-FOA, which controls the toxicity level of the reporter gene. Galactose levels ranging from 1 to 2% and 5-FOA concentrations ranging from 0.1 to 0.5% were tested simultaneously. […]

[2] = system: D-2-deoxyribose-5-phosphate aldolase (DERA) variant; conditions: directed evolution with in vitro screen; DeSantis et al., 2003; cited from earlier work
[3] = target: lipocalin (de novo selected); conditions: Beste et al., 1999; read-out: dissociation constant; cited from earlier work
[4] = target: Erwinia carotovora cellulase CelN (Cellulase N), catalytic domain, parent (Pectobacterium atrosepticum, UniProt Q59394); test: Steady-state kinetics of pNPC hydrolysis (release of p-nitrophenol), CelN; format: biochemical; conditions: pH 7, room temperature
Description: (§1) The DNA shuffling vector, pPPY2148, was constructed by digesting p425Met25 (ATCC) with HindIII and PstI and introducing an 800 bp stuffer flanked by SfiI sites. The catalytic domain of four family 5 cellulases with 77-90% sequence identity, E. carotovora CelN (Olsen et al., 1996, Biotechnology (N Y) 14:71-76), CelVI (Mae and Palva, 1995, Mol Gen Genet. 247:17-26), CelA (Park et al., 1997, Biochem Biophys Res Commun. 241:636-641) and CelT (cloned from the E. carotovora subs. atroceptica (Bell et al., 2004, Proc Natl Acad Sci USA. 101: 11105-11110) genomic DNA) were cloned into pPY2148 to create plasmids pPPY2230, pPPY2232, pPPY2234 and pPPY2236 respectively. A ^6His-tag was added at the C-terminus of the four parent genes to facilitate protein purification after selection. The catalytic domain of these cellulases was identified by sequence comparison with the catalytic domain of Bacillus agaradhaerens Cel5A, which has 68% sequence identity at the amino acid level with the parent genes and which three dimensional X-ray structure is available (Davies et al., 1998, Biochemistry 37: 1926-1932; Davies et al., 1998, Biochemistry 37: 11707-11713; Varrot et al., 2000, J Mol Biol. 297: 819-828; Varrot et al., 2001, Acta Crystallogr D Biol Crystallogr. 57: 1739-1742; Varrot and Davies, 2003, Acta Crystallogr D Biol Crystallogr. 59: 447-452). The cellulase genes were shuffled using standard procedures with slight variations (Zhao and Arnold, 1997, Nucleic Acids Res. 25: 1307-1308). To introduce the shuffled product into the shuffling vector via homologous recombination, 30 bp homology to the shuffling vector was introduced at the 5′ and 3′ end of the shuffled product by carrying an extra amplification step of the shuffling product primers VC1658-VC1659. 7.5 ng of shuffled product (1.4E11 shuffled product molecules assuming each base pair is 330M and the shuffled product was 1000 bp) was used as a template in a 100 ul amplification reaction. The product was purified in a 2% agarose gel.
(§2) Ten colonies selected on day 8 and 9 were characterized in vitro using para-nitrophenyl cellobioside (pNPC) as a substrate. The cellulase chimeras were amplified from the shuffling vector using primers PPY100 and PPY103 and subcloned into the T7-expression vectors pAED4 between NdeI and HindIII sites. The cellulase chimeras were over expressed in E. coli and purified using a Nickel affinity column. Protein concentration was determined using the extinction coefficient of the parent genes ε=76890 and absorption at A280. To determine the kinetic constants for the hydrolysis of pNPC, the cellulase chimeras were incubated at room temperature in phosphate buffer (25 mM K2HPO4, 100 mM NaCl, pH=7) containing various concentrations of the substrate, and the release of p-nitrophenol (εpH=7=4000M^−1 cm^−1, A420) was recorded continuously in a SpectraMax Plus 384 spectrophotometer.
(§3) The three starting cellulases and the improved cellulase variants were subcloned into the E. coli T7 vector, pAED4, between NdeI and HindIII sites to give vectors pPPY2256 (CelN), pPPY2258 (CelA), pPPY2257 (CelV), pPPY2291 (Cel—3.7), and pPPY2292 (Cel—5.7). The cellulases were purified using Quick spin Ni-NTA affinity column (Qiagen). Protein concentration was determined using the extinction coefficient of the starting genes (ε=76670) and absorption at 280 nm. […] The release of p-nitrophenol (εpH 7=4000M−1 cm−1, A420) was recorded continuously in a SpectraMax Plus 384 spectrophotometer at 420 nm.

[5] = system: Erwinia carotovora cellulase CelA (Cellulase A), catalytic domain, parent; test: Steady-state kinetics of pNPC hydrolysis (release of p-nitrophenol), CelA; format: biochemical; conditions: pH 7, room temperature
Description: as §1, with “To introduce the shuffled product into the shuffling vector via homologous recombination, 30 bp homology to the shuffling vector was introduced at the 5′ and 3′ end of the shuffled product by carrying an extra amplification step of the shuffling product primers VC1658-VC1659. 7.5 ng of shuffled product (1.4E11 shuffled product molecules assuming each base pair is 330M and the shuffled product was 1000 bp) was used as a template in a 100 ul amplification reaction. The product was purified in a 2% agarose gel.” left out
as §2, with “The cellulase chimeras were amplified from the shuffling vector using primers PPY100 and PPY103 and subcloned into the T7-expression vectors pAED4 between NdeI and HindIII sites. The cellulase chimeras were over expressed in E. coli and purified using a Nickel affinity column.” left out
as §3, with “The cellulases were purified using Quick spin Ni-NTA affinity column (Qiagen).” left out

[6] = target: Erwinia carotovora cellulase CelV (Cellulase V; = CelT, Cellulase T), catalytic domain, parent (Pectobacterium atrosepticum, UniProt Q6D5R0); test: Steady-state kinetics of pNPC hydrolysis (release of p-nitrophenol), CelT = CelV; format: biochemical; conditions: pH 7, room temperature
Description: as §1, §2, §3

[7] = system: Erwinia carotovora CelN/CelA/CelV shuffled variant Cellulase 1 (CELLVAR2, Colony 2, Cel_3.7), vs CelN: S126N, D157E, Q186L, L193M, V2541, T288A, E295A, G30A …; test: Steady-state kinetics of pNPC hydrolysis, Cellulase 1; format: biochemical
Experimental: as §2
(§4) The three starting cellulases and the improved cellulase variants were subcloned into the E. coli T7 vector, pAED4, between NdeI and HindIII sites to give vectors pPPY2256 (CelN), pPPY2258 (CelA), pPPY2257 (CelV), pPPY2291 (Cel—3.7), and pPPY2292 (Cel—5.7). The cellulases were purified using Quick spin Ni-NTA affinity column (Qiagen). Protein concentration was determined using the extinction coefficient of the starting genes (ε=76670) and absorption at 280 nm. To determine the kinetic constants for the hydrolysis of pNPC, the cellulase chimeras were incubated at room temperature in phosphate buffer (25 mM K2HPO4, 100 mM NaCl, pH 7) containing seven different concentrations of pNPC ranging from 12 mM to 0.185 mM. The release of p-nitrophenol (εpH 7=4000M−1 cm−1, A420) was recorded continuously in a SpectraMax Plus 384 spectrophotometer at 420 nm.
Cel—3.7 (cellulase 1) contains nine crossovers. […] A homology model of Cel—3.7 (cellulase 1) was made, utilizing the B. agaradherans Cel5A structure (SwissProt: O85465; PDB: 1h5v) with the inhibitor methyl 4,4II,4III,4IV-tetrathio-α-cellopentoside bound to the active site, using Swiss-Model (FIG. 28A). The eight mutations accessible with the homology model map onto the surface of the enzyme, away from the extended carbohydrate binding site.

[8] = system: Erwinia carotovora CelN/CelA/CelV shuffled variant Cellulase 2 (Cel_5.7), vs CelN: A86V, S126N, E154D, T172S, C208R, T262S, A267T, A272T; SEQ ID NO:6; test: Steady-state kinetics of pNPC hydrolysis, Cellulase 2; format: biochemical
Experimental: as §2, §4
A homology model of Cel—5.7 (cellulase 2) was made, again utilizing the same structure of B. agaradherans Cel5A, using Swiss-Model (FIG. 28b)^38. Four mutations are in the C-terminus loops that compose the extended carbohydrate binding site, while the other 4 map onto the surface of the enzyme. Although mutation T172S is located in C-terminus loop 5, it is 15 Å away from closest hexose ring in the substrate inhibitor. Mutations T262S, A267T, A272T are located in C-terminus loop 8. The mutation T262S is the closest to the substrate inhibitor, 6 Å away from the 6′-OH of the hexose ring in the −3 subsite. […] This mutation is located at the N-terminus of the barrel and points towards the solvent.

[9] = system: Erwinia carotovora shuffled cellulase variant Cellulase 3, SEQ ID NO:8; test: Steady-state kinetics of pNPC hydrolysis, Cellulase 3; format: biochemical; conditions: pH 7, room temperature
Experimental: as §2, §4

[10] = system: Erwinia carotovora shuffled cellulase variant Cellulase 4 (CELLVAR1, Colony 1), SEQ ID NO:3; test: Steady-state kinetics of pNPC hydrolysis, Cellulase 4; format: biochemical; conditions: pH 7, room temperature
Experimental: as §2, §4

[11] = system: Erwinia carotovora shuffled cellulase variant Cellulase 5, SEQ ID NO:10; test: Steady-state kinetics of pNPC hydrolysis, Cellulase 5; format: biochemical; conditions: pH 7, room temperature
Experimental: as §2, §4

[12] = system: Erwinia carotovora shuffled cellulase variant Cellulase 6, SEQ ID NO:12; test: Steady-state kinetics of pNPC hydrolysis, Cellulase 6; format: biochemical; conditions: pH 7, room temperature
Experimental: as §2, §4

[13] = system: Erwinia carotovora shuffled cellulase variant Cellulase 7, SEQ ID NO:14; test: Steady-state kinetics of pNPC hydrolysis, Cellulase 7; format: biochemical; conditions: pH 7, room temperature
Experimental: as §2, §4

[14] = system: Erwinia carotovora shuffled cellulase variant Cellulase 8, SEQ ID NO:16; test: Steady-state kinetics of pNPC hydrolysis, Cellulase 8; format: biochemical; conditions: pH 7, room temperature
Experimental: as §2, §4

[15] = system: O=[N+]([O-])c1ccc(O[C@@H]2O[C@H](CO)[C@@H](O[C@@H]3O[C@H](CO)[C@@H](O)[C@H](O)[C@H]3O)[C@H](O)[C@H]2O)cc1; test: Steady-state kinetics of pNPC hydrolysis (release of p-nitrophenol), CelN; format: biochemical, Erwinia carotovora; conditions: other: pNPC, pH 7, room temperature
Description: as §1, §2, §3

[16] = system: O=[N+]([O-])c1ccc(O[C@@H]2O[C@H](CO)[C@@H](O[C@@H]3O[C@H](CO)[C@@H](O)[C@H](O)[C@H]3O)[C@H](O)[C@H]2O)cc1; test: Steady-state kinetics of pNPC hydrolysis (release of p-nitrophenol), CelT = CelV; format: biochemical, Erwinia carotovora; conditions: other: pNPC, pH 7, room temperature
Description: as §1, §2, §3

## O=C(O)c1[nH]c(=O)[nH]c(=O)c1F [5-FOA, 5-fluoroorotic acid]
[1]
  effect on cell growth: detrimental for cell growth

## O=C[C@H](O)CO [D-glyceraldehyde]
[2]
  improvement in catalytic efficiency: 2.5 fold

## O=C1OC2(c3ccc(O)cc3Oc3cc(O)ccc32)c2ccccc21 [fluorescein]
[3]
  Kd: 65 nM

## O=[N+]([O-])c1ccc(O[C@@H]2O[C@H](CO)[C@@H](O[C@@H]3O[C@H](CO)[C@@H](O)[C@H](O)[C@H]3O)[C@H](O)[C@H]2O)cc1 [pNPC, p-nitrophenyl cellobioside]
[4]
  Kcat: 1300 s⁻¹
  Kcat/Km: 370000 M⁻¹ s⁻¹
[5]
  Kcat: 1400 s⁻¹
  Kcat/KM: 193000 M⁻¹ s⁻¹
  Kcat/Km: 192000 M⁻¹ s⁻¹
  Km: 7200 µM
[6]
  Kcat: 1100 s⁻¹
  Kcat/Km: 240000 M⁻¹ s⁻¹
[7]; pH 7, room temperature
  Kcat: 4300 s⁻¹
  Kcat/KM: 1.3e+06 M⁻¹ s⁻¹
  Kcat/Km: 1.4 × 10^6 sec^−1M^−1 and 1.4 × 10^6 M^−1sec^−1
  Km: 3200 µM
[7]; relative to CelN
  increase in catalytic efficiency over the best starting cellulase, CelN: 3.6 fold and 3.7 fold
[8]; pH 7, room temperature
  Kcat: 5200 s⁻¹
  Kcat/Km: 2.1 × 10^6 sec^−1M^−1 and 2.1 × 10^6 M^−1sec^−1
  Km: 2500 µM and 2470 µM
[8]; relative to CelN
  increase in catalytic efficiency over the best starting cellulase, CelN: 5.3 fold and 5.7 fold
[9]
  Kcat: 5000 s⁻¹
  Kcat/Km: 1.4 × 10^6 sec^−1M^−1 and 1.4 × 10^6 M^−1sec^−1
  Km: 3600 µM
[10]
  Kcat: 16000 s⁻¹
  Kcat/KM: 1.2e+07 M⁻¹ s⁻¹
  Kcat/Km: 1.1e+07 M⁻¹ s⁻¹
  Km: 1300 µM
[11]
  Kcat: 6700 s⁻¹
  Kcat/Km: 4.5e+06 M⁻¹ s⁻¹
  Km: 1500 µM
[12]
  Kcat: 210 s⁻¹
  Kcat/Km: 220000 M⁻¹ s⁻¹
  Km: 960 µM and 1000 µM
[13]
  Kcat: 110 s⁻¹
  Kcat/Km: 8120 M⁻¹ s⁻¹ and 8100 M⁻¹ s⁻¹
  Km: 14000 µM
[14]
  Kcat: 840 s⁻¹
  Kcat/Km: 200000 M⁻¹ s⁻¹
  Km: 4300 µM

## Erwinia carotovora cellulase CelN (Cellulase N), catalytic domain, parent (Pectobacterium atrosepticum)
[15]
  Km: 3400 µM
  kcat: 1300 s⁻¹
  kcat/Km: 374000 M⁻¹ s⁻¹

## Erwinia carotovora cellulase CelV (Cellulase V; = CelT, Cellulase T), catalytic domain, parent (Pectobacterium atrosepticum SCRI1043)
[16]
  Km: 4600 µM
  kcat: 1100 s⁻¹
  kcat/Km: 237000 M⁻¹ s⁻¹

Reference: patent publication US9169481B2, “Cell-mediated directed evolution” (priority 2006, dated 2015)
